Converted amounts (≈) assume the structure as drawn.
Experiments:
[1] = system: A549 (human non-small lung cell); assay: In vitro antitumor effect against human tumor cell lines, SRB assay; assay type: cell-based; details: 48 hours, A549 cells
Method: (§1) In vitro antitumor effect against human tumor cell lines.
A. Tumor cell lines : A549 (human non-small lung cell)
(§2) a. Human solid tumor cell lines, A549(non-small lung cell), SKMEL-2(melanoma), HCT-15(colon), SKOV-3(ovarian) and XF-498(CNS) were cultured in 5% CO2, incubators using the RPMI 1640 media containing 10% FBS at 37° C., while with transfer-culturing successively once or twice per week. Cell cultures were dissolved in a solution of 0.25% trysin and 3 mmol CDTA PBS(−) to separate the cells sticked on the culture media.
(§3) b. 5×10^3˜2×10^4 cells were added into each well of 96-well plate and cultured in 5% CO2, incubator at 37° C. for 24 hours.
(§4) c. Each sample drug was dissolved in a little DMSO and diluted with the used medium to a prescribed concentration for experiment, while the final concentration of DMSO was adjusted below 0.5%.
(§5) d. Medium of each well cultured for 24 hours as above b. was removed by aspiration. Each 200 μl of drug samples prepared in c. was added into each well and tine wells were cultured for 48 hours. Tz (time zero) plates were collected at the point of time drugs were added.
(§6) e. According to the SRB assay method, cell fixing with TCA, staining with 0.4% SRB solution, washing with 1% acetic acid and elution of dye with 10 mmol Tris solution were carried out on Tz plates and culture-ended plates, and then, OD values were measured at 520 nm.
(§7) a. Time zero (Tz) value was determined with measuring the SRB protein value at the point of time drugs were added.
(§8) b. Control value (C) was determined with the OD value of an well untreated with drug.
(§9) c. Drug-treated test value (T) was determined with the OD value of drug-treated well.
(§10) d. Effects of drugs were estimated with growth stimulation, net growth inhibition and net killing calculated from Tz, C and T values.
(§11) e. If T≧Tz, cellular response function was calculated by 100×(T−Tz)/(C−Tz), and, if T≦Tz, by 100×(T−Tz)/Tz.

HCT-15 (human colon) = assay: as above; assay type: cell-based; details: 48 hours, HCT 15 cells
Method: as §1, §2, §3, §4, §5, §6, §7, §8, §9, §10, §11

SKMEL-2 (human melanoma) = assay: as above; assay type: cell-based; details: 48 hours, SK-MEL-2 cells
Method: as §1, §2, §3, §4, §5, §6, §7, §8, §9, §10, §11

SKOV-3 (human ovarian) = assay: as above; assay type: cell-based; details: 48 hours, SK-OV-3 cells
Method: as §1, §2, §3, §4, §5, §6, §7, §8, §9, §10, §11

XF-498 (human CNS) = assay: as above; assay type: cell-based; details: 48 hours, XF-498 cells
Method: as §1, §2, §3, §4, §5, §6, §7, §8, §9, §10, §11

[2] = system: P388 (mouse lymphoid neoplasma cell); assay: In vitro antitumor effects against animal leukemia cells, dye exclusion assay; assay type: cell-based; details: 48 hours, trypan blue dye exclusion, read-out: P388, concentration showing 50% cell growth inhibition (IC50)
Method: In vitro antitumor effects against animal leukemia cells.
Tumor cell lines: P388 (mouse lymphoid neoplasma cell)
B. Method: Dye Exclusion Assay.
1) The concentration of P388 cells being cultured in RPMI 1640 media containing 10% FBS was adjusted to 1×10^6 cells/ml.
2) Each sample drug of a concentration diluted in the ratio of log dose was added into cell culture media and cultured at 37° C. for 48 hours in […] incubator, and then viable cell number was measured by dye exclusion test using trypan blue.

Topoisomerase II = assay: Inhibition effects against the Topoisomerase II activities (DNA relaxation assay, DNA cleavage assay); assay type: biochemical; details: supercoiled pBR322 DNA substrate, 30 minutes at 37° C.
Method: Inhibition effects against the Topoisomerase II activities
The present compounds were tested for inhibition of Topoisomerase II activity by means of the relaxation assay using supercoiled pBR322 DNA as the substrate. Topo II and a sample inhibitor were added to a reaction system (50 mmol Tris-HCl, pH 7.5, 50 mmol KCl, 20 mmol MgCl2, 0.5 mmol EDTA, 2 mmol ATP, 60 μg/ml BSA) containing supercoiled pBR322 DNA and reacted for 30 minutes at 37° C. Then, a quarter by volume of Stop buffer (5% SDS, 50 mmol EDTA, 30% glycerol, 0.1 mg/ml xylene cyanol, 0.1 mg/ml BPB) was added to the reaction system to stop the reaction. The resulting product went through electrophoresis on 0.7% agarose gel and was stained by ethidium bromide solution. Mobility of DNA was measured under ultraviolet rays.
Topo II and a sample inhibitor were added to cleavage buffer (30 mmol Tris-HCl, pH 7.5, 60 mmol KCl, 10 mmol MgCl2, 15 mmol β-mercaptoethanol, 30 μg /ml BSA) containing supercoiled pBR322 DNA and allowed to react for 30 minutes at 37° C. Then, […] by 1% was added to the reaction system to stop the reaction. Then, proteinase K was added thereto up to the concentration of 50 μg/ml and allowed to react for 30 minutes at 56° C. The reaction product was treated with phenol/chloroform to purify DNA, and the obtained DNA was loaded on agarose gel electrophoresis, transferred to nitrocellulose membrane and hybridized with probe DNA labelled with radioisotope. Then, the nitrocellulose membrane was covered with an X-ray film and exposed to be sensitized and developed, whereby the degree of cleavage of DNA was measured.

[3] = Acute toxicity test (LD50), Litchfield-Wilcoxon method; details: mouse, in vivo, ip; male ICR mice, observed 14 days
Method: Acute Toxicity Test (LD50):
a) Method: Litchfield-Wilcoxon Method.
6-week-old ICR mice(male 30±2.0 g) were fed freely with solid feed and water at room temperature, 23±1° C. and at humidity 60±5%. Sample drugs were injected into the abdominal cavities of mice. Each group comprised 6 mice. Observed during 14 days, external appearances and life or death thereof were recorded, and also, visible lesions were observed from dead mice by dissection. LD50 value was calculated by Litchfield-wilcoxon method.

IC50 (μg/ml), inhibition of Topoisomerase II activity (Topoisomerase II) [µg/mL]	Compound	ED50 A 549 [1] [µg/mL]	ED50 HCT 15 (HCT-15 (human colon)) [µg/mL]	ED50 SK-MEL-2 (SKMEL-2 (human melanoma)) [µg/mL]	ED50 SK-OV-3 (SKOV-3 (human ovarian)) [µg/mL]	ED50 XF-498 (XF-498 (human CNS)) [µg/mL]	IC50 [2] [µg/mL]	LD50 at 14 days [3] [mg/kg]
–	N.N.[Cl][Pt][Cl] [Cisplatin, reference compound]	0.81	3.03	0.71	0.71	0.77	–	–
3	COc1cccc(NC(=O)OCc2cc(N)cc(Nc3c4ccccc4nc4ccccc34)c2)c1 [Example 2, [3-(acridin-9-yl)amino-5-amino]benzyl N-(3-methoxyphenyl)carbamate]	–	0.97 (≈ 2.09 µM)	–	0.68 (≈ 1.46 µM)	0.71 (≈ 1.53 µM)	–	–
3	COc1cc(NC(=O)OCc2cc(N)cc(Nc3c4ccccc4nc4ccccc34)c2)cc(OC)c1 [Example 3, [3-(acridin-9-yl)amino-5-amino]benzyl N-(3,5-dimethoxyphenyl)carbamate]	–	–	–	–	–	–	–
5	COc1cc(NC(=O)OCc2cc(N)cc(Nc3c4ccccc4nc4ccccc34)c2)cc(OC)c1OC [Example 4, [3-(acridin-9-yl)amino-5-amino]benzyl N-(3,4,5-trimethoxyphenyl) carbamate]	0.19 (≈ 0.362 µM)	0.24 (≈ 0.458 µM)	0.20 (≈ 0.381 µM)	0.19 (≈ 0.362 µM)	0.23 (≈ 0.438 µM)	–	–
1	Nc1cc(COC(=O)Nc2cccc(Cl)c2)cc(Nc2c3ccccc3nc3ccccc23)c1 [Example 14, [3-(acridin-9-yl)amino-5-amino]benzyl N-(3-chlorophenyl) carbamate]	–	–	–	–	–	–	–
3	COc1cc(NC(=S)OCc2cc(N)cc(Nc3c4ccccc4nc4ccccc34)c2)cc(OC)c1 [Example 18, [3-(acridin-9-yl)amino-5-amino]benzyl N-(3,5-dimethoxyphenyl)thiocarbamate]	–	–	–	–	–	–	–
5	COc1cc(NC(=S)OCc2cc(N)cc(Nc3c4ccccc4nc4ccccc34)c2)cc(OC)c1OC [Example 19, [3-(acridin-9-yl)amino-5-amino]benzyl N-(3,4,5-trimethoxyphenyl)thiocarbamate]	–	–	–	–	–	–	–
3	COc1cccc(NC(=O)OCc2cccc(Nc3c4ccccc4nc4ccccc34)c2)c1 [Example 20, 3-(acridin-9-yl)aminobenzyl N-(3-methoxyphenyl) carbamate]	–	–	–	–	–	–	–
3	COc1cc(NC(=O)OCc2cccc(Nc3c4ccccc4nc4ccccc34)c2)cc(OC)c1 [Example 21, 3-(acridin-9-yl)aminobenzyl N-(3,5-dimethoxyphenyl) carbamate]	–	–	–	–	–	–	–
5	COc1cc(NC(=O)OCc2cccc(Nc3c4ccccc4nc4ccccc34)c2)cc(OC)c1OC [Example 22, 3-(acridin-9-yl)aminobenzyl N-(3,4,5-trimethoxyphenyl) carbamate]	–	–	–	–	–	–	–
5	CC=Nc1cc(CO)cc(Nc2c3ccccc3nc3ccccc23)c1 [Example 35, 3-(acridin-9-yl)amino-5-(ethylideneamino)phenylmethanol]	–	–	–	–	–	–	–
3	CCC=Nc1cc(CO)cc(Nc2c3ccccc3nc3ccccc23)c1 [Example 36, 3-(acridin-9-yl)amino-5-(propylideneamino)phenylmethanol]	–	–	–	–	–	–	–
5	CCCC=Nc1cc(CO)cc(Nc2c3ccccc3nc3ccccc23)c1 [Example 37, 3-(acridin-9-yl)amino-5-(butylideneamino)phenylmethanol]	0.90 (≈ 2.44 µM)	0.35 (≈ 0.947 µM)	0.89 (≈ 2.41 µM)	0.93 (≈ 2.52 µM)	0.36 (≈ 0.974 µM)	–	–
0.5	C[C@H](N)C(=O)Nc1cc(CO)cc(Nc2c3ccccc3nc3ccccc23)c1 [Example 45, N-[3-(acridin-9-yl)amino-5-(hydroxymethyl)phenyl](2S)-2-aminopropaneamide]	0.01 (≈ 0.0259 µM)	0.86 (≈ 2.23 µM)	0.25 (≈ 0.647 µM)	0.21 (≈ 0.543 µM)	0.88 (≈ 2.28 µM)	–	–
3	N[C@@H](Cc1ccccc1)C(=O)Nc1cc(CO)cc(Nc2c3ccccc3nc3ccccc23)c1 [Example 46, N-[3-(acridin-9-yl)amino-5-(hydroxymethyl)phenyl](2S)-2-amino-3-phenylpropaneamide]	–	–	–	–	–	–	–

Compound	IC50 (μg/ml), inhibition of Topoisomerase II activity (Topoisomerase II) [µg/mL]	ED50 A 549 [1] [µg/mL]	ED50 HCT 15 (HCT-15 (human colon)) [µg/mL]	ED50 SK-MEL-2 (SKMEL-2 (human melanoma)) [µg/mL]	ED50 SK-OV-3 (SKOV-3 (human ovarian)) [µg/mL]	ED50 XF-498 (XF-498 (human CNS)) [µg/mL]	IC50 [2] [µg/mL]	LD50 at 14 days [3] [mg/kg]
Nc1cc(COC(=O)Nc2ccccc2)cc(Nc2c3ccccc3nc3ccccc23)c1 [Example 1, [3-(acridin-9-yl)amino-5-amino]benzyl N-phenylcarbamate]	1	0.96 (≈ 2.21 µM)	0.57 (≈ 1.31 µM)	0.49 (≈ 1.13 µM)	1.15 (≈ 2.65 µM)	0.44 (≈ 1.01 µM)	0.9 (≈ 2.07 µM)	–
Cc1cc(C)cc(NC(=O)OCc2cc(N)cc(Nc3c4ccccc4nc4ccccc34)c2)c1 [Example 6, [3-(acridin-9-yl)amino-5-amino]benzyl N-(3,5-dimethylphenyl) carbamate]	3	0.72 (≈ 1.56 µM)	0.33 (≈ 0.713 µM)	0.40 (≈ 0.865 µM)	0.36 (≈ 0.778 µM)	0.37 (≈ 0.8 µM)	0.8 (≈ 1.73 µM)	–
Nc1cc(COC(=O)Nc2cc(F)cc(F)c2)cc(Nc2c3ccccc3nc3ccccc23)c1 [Example 12, [3-(acridin-9-yl)amino-5-amino]benzyl N-(3,5-difluorophenyl) carbamate]	0.5	–	–	–	–	–	1.2 (≈ 2.55 µM)	150

— patent publication US6620936B2, “9-aminoacridine derivatives and process for the preparation thereof” (Samjin Pharmaceutical Co., Ltd., priority 1998, dated 2003)
